Where “and” joins values, the source holds several entries; their conditions need not be identical. Identical values can stand only once. Toxic doses and inconclusive results are not listed. No stated cut-off is given here; in the data, active means T/C of 150% or more; inactive means T/C below 125%.
Tested on: L1210 leukemia ip in BDF1 mice, survival T/C
Assay: NCI In Vivo Anticancer Drug Screen. Data for tumor model L1210 Leukemia (intraperitoneal) in B6D2F1 (BDF1) mice
Details: endpoint: mean survival time, higher = longer survival
In short: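 In this screen, tumor-bearing mice given compound are compared to those given vehicle, and their survival values are reported as a treated-to-control quotient.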

[1] = dose: 100.0 mg/kg/injection, schedule: Q01DX009 (ip), vehicle: saline
[2] = dose: 100.0 mg/kg/injection, schedule: Q01DX001 (ip), vehicle: Klucel (hydroxypropylcellulose) (HPC)
[3] = dose: 200.0 mg/kg/injection, schedule: Q01DX001 (ip), vehicle: Klucel (hydroxypropylcellulose) (HPC)
[4] = dose: 400.0 mg/kg/injection, schedule: Q01DX001 (ip), vehicle: Klucel (hydroxypropylcellulose) (HPC)
[5] = dose: 100.0 mg/kg/injection, schedule: Q04DX003 (ip), vehicle: saline
[6] = dose: 200.0 mg/kg/injection, schedule: Q04DX003 (ip), vehicle: saline
[7] = dose: 400.0 mg/kg/injection, schedule: Q04DX003 (ip), vehicle: saline
[8] = dose: 100.0 mg/kg/injection, schedule: Q01DX001 (ip), vehicle: saline with Tween-80
[9] = dose: 200.0 mg/kg/injection, schedule: Q01DX001 (ip), vehicle: saline with Tween-80
[10] = dose: 400.0 mg/kg/injection, schedule: Q01DX001 (ip), vehicle: saline with Tween-80
[11] = dose: 100.0 mg/kg/injection, schedule: Q04DX003 (ip), vehicle: saline with Tween-80
[12] = dose: 200.0 mg/kg/injection, schedule: Q04DX003 (ip), vehicle: saline with Tween-80
[13] = dose: 25.0 mg/kg/injection, schedule: Q01DX009 (ip), vehicle: Klucel (hydroxypropylcellulose) (HPC)
[14] = dose: 50.0 mg/kg/injection, schedule: Q01DX009 (ip), vehicle: Klucel (hydroxypropylcellulose) (HPC)
[15] = dose: 100.0 mg/kg/injection, schedule: Q04DX002 (ip), vehicle: Klucel (hydroxypropylcellulose) (HPC)
[16] = dose: 200.0 mg/kg/injection, schedule: Q04DX002 (ip), vehicle: Klucel (hydroxypropylcellulose) (HPC)
[17] = dose: 100.0 mg/kg/injection, schedule: Q01DX001 (ip), vehicle: saline
[18] = dose: 200.0 mg/kg/injection, schedule: Q01DX001 (ip), vehicle: saline
[19] = dose: 50.0 mg/kg/injection, schedule: Q01DX001 (ip), vehicle: carboxymethylcellulose (CMC)
[20] = dose: 100.0 mg/kg/injection, schedule: Q01DX009 (ip), vehicle: Klucel (hydroxypropylcellulose) (HPC)
[21] = dose: 200.0 mg/kg/injection, schedule: Q01DX009 (ip), vehicle: Klucel (hydroxypropylcellulose) (HPC)

Measured: T/C

CCCC(CCN(C)C)(CNC(=O)CN(CC)CC)c1cccc2ccccc12 (centres undefined)
inactive: dose: 50.0 mg/kg/injection, schedule: Q04DX002 (ip), vehicle: saline 105 % of control | [1] 99 % of control | dose: 100.0 mg/kg/injection, schedule: Q04DX002 (ip), vehicle: saline 100 % of control | dose: 200.0 mg/kg/injection, schedule: Q04DX002 (ip), vehicle: saline 100 % of control

CC(=O)Nc1ccc(N=Nc2ccccc2)cc1
inactive: [2] 100 % of control | [3] 100 % of control | [4] 96 % of control

COC(=O)c1csc(CCN)n1
inactive: [5] 102 % of control | [6] 94 % of control | [7] 97 % of control

O=C1c2c(c(-c3ccccc3)c3ccccc3c2-c2ccccc2)C(c2ccccc2)c2c1c(-c1ccccc1)c1ccccc1c2-c1ccccc1
inactive: [8] 111 % of control | [9] 97 % of control | [10] 90 % of control

CCCCCCCCCCCCCCCCCCNC(=S)N/N=C/c1ccc(Cl)cc1Cl
inactive: dose: 50.0 mg/kg/injection, schedule: Q04DX003 (ip), vehicle: other 91 % of control | dose: 100.0 mg/kg/injection, schedule: Q01DX001 (ip), vehicle: other 95 % of control | dose: 100.0 mg/kg/injection, schedule: Q04DX003 (ip), vehicle: other 96 % of control | dose: 200.0 mg/kg/injection, schedule: Q01DX001 (ip), vehicle: other 86 % of control and 92 % of control | dose: 200.0 mg/kg/injection, schedule: Q04DX003 (ip), vehicle: other 93 % of control

CC(=O)On1nnc2c(Cl)c(Cl)c(Cl)c(Cl)c21
inactive: [5] 94 % of control | [6] 94 % of control | [7] 87 % of control

CSCCO
inactive: [1] 89 % of control | dose: 100.0 mg/kg/injection, schedule: Q04DX003 (ip), vehicle: saline sonified 102 % of control | dose: 200.0 mg/kg/injection, schedule: Q01DX009 (ip), vehicle: saline 100 % of control | dose: 200.0 mg/kg/injection, schedule: Q04DX003 (ip), vehicle: saline sonified 116 % of control | dose: 400.0 mg/kg/injection, schedule: Q01DX009 (ip), vehicle: saline 96 % of control | dose: 400.0 mg/kg/injection, schedule: Q04DX003 (ip), vehicle: saline sonified 98 % of control

CCCCc1ccc(-n2cnc3c(=O)[nH]c(N)nc32)cc1
inactive: [11] 88 % of control | [12] 97 % of control

O=C(O)C(F)(F)F.[Cu+2]
inactive: dose: 12.5 mg/kg/injection, schedule: Q04DX002 (ip), vehicle: saline 98 % of control | dose: 25.0 mg/kg/injection, schedule: Q04DX002 (ip), vehicle: saline 95 % of control

Cc1nn(CCO)c(C)c1N=[N+]([O-])c1c(C)nn(CCO)c1C
inactive: [13] 93 % of control and 98 % of control | dose: 30.0 mg/kg/injection, schedule: Q01DX009 (ip), vehicle: saline 95 % of control | [14] 95 % of control and 107 % of control | dose: 50.0 mg/kg/injection, schedule: Q04DX002 (ip), vehicle: Klucel (hydroxypropylcellulose) (HPC) 101 % of control | [15] 96 % of control | [16] 96 % of control

CC1(C)N=C(N)N=C(N)N1c1ccc(CCNS(=O)(=O)c2ccc(S(=O)(=O)F)cc2)cc1
inactive: dose: 0.8 mg/kg/injection, schedule: Q01DX009 (ip), vehicle: saline 97 % of control | dose: 4.0 mg/kg/injection, schedule: Q01DX009 (ip), vehicle: saline 104 % of control | dose: 20.0 mg/kg/injection, schedule: Q01DX009 (ip), vehicle: saline 103 % of control | [1] 103 % of control | dose: 500.0 mg/kg/injection, schedule: Q01DX009 (ip), vehicle: saline 108 % of control

S=c1cccc[nH]1
inactive: dose: 100.0 mg/kg/injection, schedule: Q04DX003 (ip), vehicle: Klucel (hydroxypropylcellulose) (HPC) 101 % of control | dose: 200.0 mg/kg/injection, schedule: Q04DX003 (ip), vehicle: Klucel (hydroxypropylcellulose) (HPC) 102 % of control | dose: 400.0 mg/kg/injection, schedule: Q04DX003 (ip), vehicle: Klucel (hydroxypropylcellulose) (HPC) 96 % of control

Nc1cccn2ncnc12
inactive: [17] 103 % of control | [18] 104 % of control | dose: 400.0 mg/kg/injection, schedule: Q01DX001 (ip), vehicle: saline 97 % of control

CNc1ncnc2c1ccn2C1OC(CO)C(O)C1O (centres undefined)
inactive: [19] 110 % of control

C/C(=N\Sc1cccc([N+](=O)[O-])c1)c1ccccc1O
inactive: [15] 105 % of control | [16] 94 % of control | dose: 400.0 mg/kg/injection, schedule: Q04DX002 (ip), vehicle: Klucel (hydroxypropylcellulose) (HPC) 94 % of control

CN=NNc1ccc(C)cc1
inactive: [13] 89 % of control | dose: 50.0 mg/kg/injection, schedule: Q01DX001 (ip), vehicle: saline 108 % of control | [14] 105 % of control and 117 % of control | [17] 108 % of control | [20] 102 % of control and 120 % of control | dose: 150.0 mg/kg/injection, schedule: Q01DX009 (ip), vehicle: Klucel (hydroxypropylcellulose) (HPC) 113 % of control | [18] 116 % of control | [21] 99 % of control and 91 % of control

CCCOC1=C(Br)C(=O)c2ccccc2C1=O
inactive: dose: 15.0 mg/kg/injection, schedule: Q01DX001 (ip), vehicle: carboxymethylcellulose (CMC) 98 % of control | dose: 30.0 mg/kg/injection, schedule: Q01DX001 (ip), vehicle: carboxymethylcellulose (CMC) 97 % of control

C=CCCCCCCCCCC(CCCCCC)C(=O)O (centres undefined)
inactive: [8] 101 % of control | [9] 111 % of control | [10] 92 % of control

O=[N+]([O-])c1cccc(/C=N/NC(=S)Nc2ccccc2)c1
inactive: [20] 89 % of control | [21] 93 % of control

O=C(NCCCN1CCOCC1)C(Oc1ccccc1)Oc1ccccc1
inactive: dose: 6.25 mg/kg/injection, schedule: Q01DX009 (ip), vehicle: Klucel (hydroxypropylcellulose) (HPC) 91 % of control | dose: 12.5 mg/kg/injection, schedule: Q01DX009 (ip), vehicle: Klucel (hydroxypropylcellulose) (HPC) 98 % of control | [13] 100 % of control | [14] 89 % of control

CN(C)c1ccc(C=Nc2cccc([N+](=O)[O-])c2)cc1
inactive: [2] 91 % of control | [3] 86 % of control | [4] 90 % of control

Cn1c2ccccc2c(=O)c2c(O)cc3c(c21)C=C(Br)C(C)(C)O3
inactive: [19] 88 % of control | dose: 100.0 mg/kg/injection, schedule: Q01DX001 (ip), vehicle: carboxymethylcellulose (CMC) 93 % of control | dose: 200.0 mg/kg/injection, schedule: Q01DX001 (ip), vehicle: carboxymethylcellulose (CMC) 98 % of control | dose: 400.0 mg/kg/injection, schedule: Q01DX001 (ip), vehicle: carboxymethylcellulose (CMC) 90 % of control

CCCCCCCCCC(C)CCCCC (centres undefined)
inactive: dose: 25.0 mg/kg/injection, schedule: Q01DX001 (ip), vehicle: saline with Tween-80 93 % of control | dose: 50.0 mg/kg/injection, schedule: Q01DX001 (ip), vehicle: saline with Tween-80 98 % of control | [8] 95 % of control and 97 % of control | [9] 98 % of control

COC1OC2COC(c3ccccc3)OC2C2OC12 (centres undefined)
inactive: [8] 94 % of control | dose: 100.0 mg/kg/injection, schedule: Q01DX009 (ip), vehicle: saline with Tween-80 102 % of control | dose: 100.0 mg/kg/injection, schedule: Q04DX002 (ip), vehicle: saline with Tween-80 100 % of control and 90 % of control | [11] 91 % of control and 86 % of control | [9] 88 % of control | dose: 200.0 mg/kg/injection, schedule: Q01DX009 (ip), vehicle: saline with Tween-80 102 % of control | dose: 200.0 mg/kg/injection, schedule: Q04DX002 (ip), vehicle: saline with Tween-80 96 % of control and 111 % of control | [12] 100 % of control and 88 % of control | [10] 88 % of control | dose: 400.0 mg/kg/injection, schedule: Q01DX009 (ip), vehicle: saline with Tween-80 97 % of control | dose: 400.0 mg/kg/injection, schedule: Q04DX002 (ip), vehicle: saline with Tween-80 100 % of control and 97 % of control | dose: 400.0 mg/kg/injection, schedule: Q04DX003 (ip), vehicle: saline with Tween-80 90 % of control and 93 % of control
